Measured values: patent publication US20260306491A1, “EGFR INHIBITOR FOR TREATING CANCERS COMPRISING ATYPICAL EGFR MUTATIONS” (ORIC Pharmaceuticals, Inc., priority 2023, published 2026)
Several values for one entry are separate records, joined by “and”; a condition that tells them apart may be missing. Equal entries are not always repeated.

How the values were obtained:
[1] = tested on: EGFR exon 20 mutated NSCLC with active CNS metastases; assay: Clinical evaluation in one subject (Example 11); format: in vivo, human; conditions: hemifumarate, 75 mg QD
Procedure: A subject having EGFR exon 20 mutated non-small cell lung cancer was enrolled in a clinical study relating to Compound I. The cancer in the subject had been previously treated with chemotherapy (pemetrexed/cisplatin) and amivantamab. The subject presented with four active CNS non-target lesions that were previously untreated, and for which the subject had not undergone prior surgery or radiation treatment. The subject was enrolled in a dosing cohort that received 75 mg QD of Compound I in the form of a hemifumarate salt.

[2] = Biodistribution in plasma and brain after single oral dose in female CB17 SCID mice; format: in vivo; conditions: mouse
Procedure: Female non-tumor bearing Fox Chase CB17 SCID mice were orally administered a single dose as specified in Table B1.
Brain tissues were excised and plasma was collected from all the animals receiving Compound I, or tucatinib at 1 hour, 4 hours, and 8 hours post-administration. Tucatinib was used as a reference agent. Tucatinib is a clinically approved therapy for HER2 positive breast cancer patients with brain metastases. The harvested brains were rinsed in ice-cold phosphate-buffered saline and weighed. All plasma and brain samples were stored at approximately −80° C. until thawed for LC-MS/MS analysis.
Prior to analysis, brain tissues were homogenized 1:5 with phosphate buffer. Average free brain-to-free plasma ratio (Kp,uu) was calculated from individual mice by using total concentration values determined in the brain and plasma at individual time points, or by calculating the area under the curve (AUC) and converting the values to free concentration (or AUC) with in vitro binding parameters determined in the brain (fu,b) and plasma (fu,p) as follows:
Kp,uu=Brain Concentration (or AUC)*fu,b/Plasma Concentration (or AUC)*fu,p.
Free fraction in the brain (fu,b) and in plasma (fu,p) was determined with equilibrium dialysis as follows: The brain tissue homogenate or plasma from the mice were spiked to yield a final concentration of 1 μM Compound I, or 5 μM tucatinib. Compound I and tucatinib were incubated in equilibrium dialysis plate on a shaking incubator at 37° C. with 5% CO2 at 450 rpm for 8 hours and 24 hours, respectively. Following the incubation, aliquots of the matrix and the buffer samples were sampled and the concentration of Compound I, or tucatinib were determined.
where fu,b,d is fraction unbound determined with 20% brain homogenate.

[3] = tested on: EGFR exon 20 insertion mutated NSCLC; assay: Clinical study: duration of treatment and antitumor response, EGFR exon 20 insertion mutated NSCLC (Example 10); format: in vivo, human; conditions: oral hemifumarate, one value per subject
Procedure: A clinical study was conducted using Compound I in human subjects having non-small cell lung cancer (NSCLC) comprising EGFR exon 20 insertion mutations, HER2 exon 20 insertion mutations, or HER2 amplification or overexpression. A total of 50 human subjects having non-small cell lung cancer comprising one or more EGFR exon 20 insertion mutations, HER2 exon 20 insertion mutations, or HER2 amplification or overexpression were enrolled in the study as of Jul. 31, 2023 with data collected as of Sep. 26, 2023. The subjects were enrolled into one of ten dosing cohorts that were each orally administered Compound I in the form of a hemifumarate salt as shown in Table 13 (QD=once per day; BID=twice per day).
Duration of treatment and antitumor responses achieved in evaluable subjects with EGFR exon 20 insertion mutated NSCLC (dose level greater than or equal to 45 mg TDD and at least one post-baseline tumor assessment) who were administered Compound I in the form of a hemifumarate salt are set forth in Tables 19 and 20, respectively.

C=CC(=O)Nc1cc(Nc2cc(N3OCC[C@@H]3c3cc(F)cc(F)c3)ncn2)c(OC)cc1N1CCC(N2CCN(C3CC3)CC2)CC1 [Compound I, N-[2-[4-(4-cyclopropyl-1-piperazinyl)-1-piperidinyl]-5-[[6-[(3R)-3-(3,5-difluorophenyl)-2-isoxazolidinyl]-4-pyrimidinyl]amino]-4-methoxyphenyl]-2-propenamide]
Reduction of all target and non-target lesions ([1]; after cycle 1 (28 days)): 60% | Reduction of all 4 CNS lesions ([1]; after cycle 1, confirmed after cycle 2): 100% | Duration of dosing at data cutoff ([1]; continuing): on dosing cycle 9 | EGFR-related adverse events ([1]; data cutoff Sep. 26, 2023): Grade 2 mucositis and Grade 2 paronychia | Reduction of all target and non-target lesions ([1]; end of cycle 2): 100% | Tumor response ([1]; end of cycle 2, confirmed): complete response | Bioavailability profile in plasma and brain ([2]; oral 3 mg/kg): excellent bioavailability profile | Unbound brain concentration ([2]; oral 3 mg/kg, 8 h): below the limit of quantitation (BLOQ) | Unbound brain concentration compared to tucatinib ([2]; oral, 1 h and 4 h, 3 mg/kg Compound I vs 50 mg/kg tucatinib): much higher unbound brain concentration | Unbound plasma concentration relative to tucatinib ([2]; oral, 8 h, 3 mg/kg Compound I vs 50 mg/kg tucatinib): about 15 fold | Total area under the curve (AUC) higher than that of tucatinib ([2]; oral, first eight hours, 3 mg/kg Compound I vs 50 mg/kg tucatinib, brain context): about 800% | Blood-brain barrier penetration compared to tucatinib ([2]; oral, 3 mg/kg Compound I vs 50 mg/kg tucatinib): superior ability of Compound I to penetrate the blood-brain barrier as compared to tucatinib | Duration of treatment ([3]; dosing cohort 30 BID): ongoing | Duration of treatment ([3]; dosing cohort 45 QD): 84 days and ongoing and 134 days and 28 days | Duration of treatment ([3]; dosing cohort 60 QD): 33 days and ongoing and 20 days | Duration of treatment ([3]; dosing cohort 75 QD): 90 days and 109 days and 20 days and ongoing | Duration of treatment ([3]; dosing cohort 90 QD): 28 days and 52 days
